Legend:
[1] = human
[2] = human; remark: listed apart in the source
[3] = human; remark: listed apart in the source
[4] = human, serum, 4383 h
[5] = human; remark: listed apart in the source
[6] = human; remark: listed apart in the source
[7] = Highest frequency of acute liver toxicity observed during clinical trials, expressed as a percentage. [column '% AIGUE' in source]; conditions: human
[8] = human; remark: listed apart in the source
[9] = Highest frequency of moderate liver toxicity observed during clinical trials, expressed as a percentage. [column '% BIOL' in source]; conditions: human
[10] = human, serum
[11] = human; remark: listed apart in the source
[12] = Times to onset, minimal and maximal, observed in the indexed observations. [column 'DELAI' in source]; conditions: human
[13] = human, serum; remark: listed apart in the source
[14] = human; remark: listed apart in the source
[15] = human; remark: listed apart in the source
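Wherever Hepatotoxicity (association with vascular disease) is given: count of indexed literature references reporting vascular liver injury in humans, e.g. peliosis hepatitis, hepatic veno-occlusive disease or Budd-Chiari syndrome.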
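Wherever Hepatotoxicity (benign tumour) is given: value is a count of indexed literature references citing a benign tumour confirmed by histopathology.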
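Wherever Hepatotoxicity (choleostasis) is given: human cholestatic liver injury, shown by histopathology or by peak ALT or AST elevation over alkaline phosphatase ratio below 2, value counts indexed literature reports.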
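Wherever Hepatotoxicity (chronic liver disease) is given: chronic liver injury confirmed by histopathology or persistently raised serum aminotransferase activity beyond 6 months, value given as the count of indexed literature references.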
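Wherever Hepatotoxicity (cirrhosis) is given: value is a count of indexed literature references reporting cirrhosis confirmed by histopathology.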
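Wherever Hepatotoxicity (cytolytic) is given: human cytolytic liver injury, shown by histopathology or by a ratio above 5 of peak ALT or AST elevation to alkaline phosphatase elevation, value counts indexed references.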
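Wherever Hepatotoxicity (granulomatous hepatitis) is given: value is a count of indexed literature references reporting granulomatous liver disease confirmed by histopathology.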
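Wherever Hepatotoxicity (malignant tumour) is given: malignant tumour confirmed by histopathology, value gives the count of indexed literature references reporting it.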
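Wherever Hepatotoxicity (severe hepatitis) is given: human clinical data: severe hepatitis, meaning potentially life-threatening liver failure or clinically observed cases, the value counts how many indexed literature references report it.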
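Wherever Hepatotoxicity (steatosis) is given: steatosis confirmed by histopathology, value is the count of indexed references.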

Compound | Hepatotoxicity (choleostasis) [1] | Hepatotoxicity (malignant tumour) [2] | Hepatotoxicity (cirrhosis) [3] | Hepatotoxicity (chronic liver disease) [4] | Hepatotoxicity (benign tumour) [5] | Hepatotoxicity (steatosis) [6] | Hepatotoxicity (acute) [7] [%] | Hepatotoxicity (granulomatous hepatitis) [8] | Hepatotoxicity (moderate) [9] [%] | Hepatotoxicity (moderate) [10] | Hepatotoxicity (association with vascular disease) [11] | Hepatotoxicity (time to onset) [12] | Hepatotoxicity (acute) [13] | Hepatotoxicity (severe hepatitis) [14] | Hepatotoxicity (cytolytic) [15] | further results
CN1CCN2c3ncccc3Cc3ccccc3C2C1 (stereo not given) [MIRTAZAPINE] | 0 | 0 | 0 | 0 | 0 | 1 | 0 | 0 | 1 | 2 | 0 | 1 year - 3 years | 1 | 1 | 1 | 
CC1Cc2ccccc2N1NC(=O)c1ccc(Cl)c(S(N)(=O)=O)c1 (stereo not given) [INDAPAMIDE] | 1 | 0 | 0 | 0 | 0 | 0 |  | 0 |  | 1 | 0 | 6 months - 5 years | 4 |  | 3 | Hepatotoxicity (acute) ([7]; Liver): 0%; Hepatotoxicity (moderate) ([9]; Liver): 0%; Hepatotoxicity (severe hepatitis) ([14]; Liver): 1
O=C(NCCN1CCN(c2cccc3c2OC[C@H](CO)O3)CC1)c1ccc(F)cc1 [FLESINOXAN] | 0 | 0 | 0 | 0 | 0 | 0 | 0 | 0 | 12.5 | 1 | 0 | 6 weeks | 0 | 0 | 0 | 
CC(O)(CS(=O)(=O)c1ccc(F)cc1)C(=O)Nc1ccc(C#N)c(C(F)(F)F)c1 (stereo not given) [BICALUTAMIDE] | 0 | 0 | 0 | 0 | 0 | 0 | 0 | 0 | 6 | 1 | 0 | 2 days | 1 | 1 | 1 | 
COc1cc(N)c(Cl)cc1C(=O)NC1CCN(CCCOc2ccc(F)cc2)CC1OC (stereo not given) [CISAPRIDE] | 0 | 0 | 0 | 0 | 0 | 0 | 0 | 0 | 0 | 2 | 0 | 4 days | 1 | 0 | 1 | 
O=C(CCBr)N1CCN(C(=O)CCBr)CC1 [PIPOBROMAN] | 0 | 0 | 0 | 0 | 0 | 0 | 0 | 0 | 0 | 0 | 0 | 2 months | 1 | 0 | 1 | 
[AsH3] [ARSENIC] |  | 1 | 1 | 1 | 0 | 0 |  |  |  | 4 | 0 | 46 years | 1 |  |  | Hepatotoxicity (choleostasis) ([1]; Liver): 0; Hepatotoxicity (acute) ([7]; Liver): 47.6%; Hepatotoxicity (granulomatous hepatitis) ([8]; Liver): 0; Hepatotoxicity (moderate) ([9]; Liver): 35.7%; Hepatotoxicity (severe hepatitis) ([14]; Liver): 0; Hepatotoxicity (cytolytic) ([15]; Liver): 0
CCC[C@H](N[C@@H](C)C(=O)N1[C@H](C(=O)O)C[C@@H]2CCCC[C@@H]21)C(=O)OCC [PERINDOPRIL] | 0 | 0 | 0 | 0 | 0 | 0 | 0 | 0 | 12.2 | 1 | 0 | 3 weeks | 1 | 0 | 1 | 
O=c1[nH]c2ccccc2n1CCCN1CCC(n2c(=O)[nH]c3cc(Cl)ccc32)CC1 [DOMPERIDONE] | 0 | 0 | 0 | 0 | 0 | 0 | 0 | 0 | 0 | 0 | 0 | < 1 week | 1 | 0 | 1 | 
N=C(N)NCC1COc2ccccc2O1 (stereo not given) [GUANOXAN] | 2 | 0 | 0 | 0 | 0 | 0 | 10 | 0 | 30 | 2 | 0 | 2 months - 1 year | 2 | 1 | 1 | 
Nc1nc(Cl)nc2c1ncn2[C@H]1C[C@H](O)[C@@H](CO)O1 [CLADRIBINE] | 0 | 0 | 0 | 0 | 0 | 0 | 9.1 | 0 | 13 | 4 | 1 | 2 weeks - 6 months | 2 | 0 | 1 | 
CN(C)CC/C=C1/c2ccccc2Sc2ccc(Cl)cc21 [CHLORPROTHIXENE] | 1 | 0 | 0 | 0 | 0 | 0 | 0 | 0 | 0 | 0 | 0 | 1 week | 1 | 0 | 0 | 
Nc1ccc(C(=O)O)cc1 [AMINOBENZOIC ACID] | 0 | 0 | 0 | 0 | 0 | 0 | 0 | 0 | 35 | 1 | 0 | 4 weeks - 2 months | 3 | 0 | 2 | 
Cn1nnnc1SCC1=C(C(=O)O)N2C(=O)[C@@H](NC(=O)[C@H](O)c3ccccc3)[C@H]2SC1 [CEFAMANDOLE] | 1 | 0 | 0 | 0 | 0 | 0 | 2.4 | 0 | 75 | 13 | 0 | 4 days | 2 | 0 | 0 | 
CCCCC1C(=O)NN(c2ccccc2)C1=O (stereo not given) [MOFEBUTAZONE] | 0 | 0 | 1 | 0 | 0 | 0 | 0 | 0 | 0 | 0 | 0 | 2 years | 1 | 0 | 1 | 
